Values quoted from earlier work in patent publication US20070287755A1, “Orally administered compound for preventing neonatal hemorrhages, in a tardy form, caused by a K-vitamin dificiency” (priority 2006, published 2007).

What was measured:
[1] = only if a suitable amount of biliar salts is present; lymphatic ways, proximal small intestine
[2] = tested on: tardy hemorrhagic disease; conditions: repeated oral doses of 25 micrograms/day, breast-fed newborn babies
[3] = human person, after 72 hours

Row | Compound | absorption through the gastrointestinal tract [1] | prophylaxis of tardy hemorrhagic disease [2] | presence in blood [3]
1 | CC1=C(C/C=C(\C)CCC[C@H](C)CCC[C@H](C)CCCC(C)C)C(=O)c2ccccc2C1=O [Phytonadion] | nearly fully absorbed |  | 
2 | K-vitamin |  | efficient for a full prophylaxis | practically absent in blood
